Data published in US5656591A, “Antimicrobial agents and method for treating products therewith” (Morinaga Milk Industry Co., Ltd., priority 1992, dated 1997).

Columns and labels:
Escherichia coli 0-111 = test: Test for antimicrobial activity (turbidity): growth inhibiting concentration of antibiotics; format: cell-based
Method: (§1) Precultures of test microorganisms to be used in the tests described hereunder were prepared in such a manner that: from the frozen preservation of dispersions of test microorganisms, a loop of the respective strains of the microorganisms were taken out and spread onto TRI PETIT CASE SOYA AGAR MEDIA (by BBL Company), and incubated at 37° C. for 16 hours; the colonies grown on the culture media were scraped by a platinum loop and cultivated in 2.1% Mueller-Hington Broth (by Difco Company) respectively for several hours at 37° C. The resultant microbial cultures at logarithmic phase in 3×10^8 /ml of microbial concentration were used as the precultures.
(§2) The test media to be used in the respective tests were prepared in such a manner that: aqueous solutions in a predetermined concentration of the lactoferrin hydrolysates or the lactoferrin-derived antimicrobial peptides of (1) and (2) in Preparation of Samples (supra), as well as the samples of antibiotics of (3) (supra) were respectively sterilized with filters (by Advantec Company); then a quantity of the resultant solutions of respective samples were selectively added to a quantity of basal medium (Mueller-Hington Broth) prepared in the eventual concentration of 2.1%, thereby combinations of the samples and their concentrations in the respective test media were adjusted as specified in the respective tests.
(§3) Antimicrobial activity was examined as follows: A quantity of the respective precultures prepared in (1) immediately above was diluted with 2.1% Mueller-Hington Broth to result in 2×10^6 /ml of microbial concentration; 100 μl aliquots of the resultant liquid were added to 100 μl aliquots of one of the test media as specified in the respective test; the resultant media were incubated at 37° C. for 16 hours; then the turbidity of the resultant culture broths were measured thereby antimicrobial activity was examined.
(§4) Components in the test and control media and eventual concentrations thereof were adjusted by properly combining 0 mg, 0.4 mg, 1.6 mg and 6.4 mg/ml of lactoferrin hydrolysate of (1) (in Preparation of Samples, supra). or 0 μg, 16 μg, 64 μg, and 256 μg/ml of lactoferrin-derived antimicrobial peptides of (2) (in Preparation of Samples, supra), and 0 μg, 0.01 μg, 0.1 μg, 1 μg, and 10 μg/ml of antibiotics of (3) (supra), then antimicrobial activity of the combined use of the components against Escherichia coli 0-111 and Staphylococcus aureus (JCM2151) as well as growth inhibiting concentrations of the antibiotics were investigated.

[1] = system: Staphylococcus aureus JCM2151; test: as above; format: cell-based; conditions: for MIC: Staphylococcus aureus
Method: as §1, §2, §3, §4

[2] = Escherichia coli, 0111, antimicrobial peptide (Seq. ID No. 27) 0 μg/ml
[3] = Escherichia coli, 0111, antimicrobial peptide (Seq. ID No. 27) 16 μg/ml
[4] = Escherichia coli, 0111, antimicrobial peptide (Seq. ID No. 27) 64 μg/ml
[5] = Escherichia coli, 0111, antimicrobial peptide (Seq. ID No. 27) 256 μg/ml
[6] = lactoferrin hydrolysate 0 mg/ml
[7] = lactoferrin hydrolysate 0.4 mg/ml
[8] = lactoferrin hydrolysate 1.6 mg/ml
[9] = lactoferrin hydrolysate 6.4 mg/ml
[10] = JCM2151, antimicrobial peptide (Seq. ID No. 27) 0 μg/ml
[11] = JCM2151, antimicrobial peptide (Seq. ID No. 27) 16 μg/ml
[12] = JCM2151, antimicrobial peptide (Seq. ID No. 27) 64 μg/ml
[13] = JCM2151, antimicrobial peptide (Seq. ID No. 27) 256 μg/ml
[14] = antimicrobial peptide (Seq. ID No. 27) 0 μg/ml
[15] = antimicrobial peptide (Seq. ID No. 27) 16 μg/ml
[16] = antimicrobial peptide (Seq. ID No. 27) 64 μg/ml
[17] = antimicrobial peptide (Seq. ID No. 27) 256 μg/ml

Structure (SMILES)	MIC (Escherichia coli 0-111; [2])	MIC (Escherichia coli 0-111; [3])	MIC (Escherichia coli 0-111; [4])	MIC (Escherichia coli 0-111; [5])	Growth inhibiting Concentration of antibiotics (Escherichia coli 0-111; [6])	Growth inhibiting Concentration of antibiotics (Escherichia coli 0-111; [7])	Growth inhibiting Concentration of antibiotics (Escherichia coli 0-111; [8])	Growth inhibiting Concentration of antibiotics (Escherichia coli 0-111; [9])	MIC [1, 10]	MIC [1, 11]	MIC [1, 12]	MIC [1, 13]	Growth inhibiting Concentration of antibiotics [1, 6]	Growth inhibiting Concentration of antibiotics [1, 7]	Growth inhibiting Concentration of antibiotics [1, 8]	Growth inhibiting Concentration of antibiotics [1, 9]	also measured
CC1(C)S[C@@H]2[C@H](NC(=O)[C@H](N)c3ccccc3)C(=O)N2[C@H]1C(=O)O [ampicillin]	> 1 µg/mL	1 µg/mL	1 µg/mL	0.1 µg/mL	> 1 µg/mL	1 µg/mL	1 µg/mL	0.01 µg/mL	> 1 µg/mL	1 µg/mL	1 µg/mL	0.1 µg/mL	> 1 µg/mL	1 µg/mL	1 µg/mL	0.1 µg/mL	–
CC(=O)OCC1=C(C(=O)O)N2C(=O)[C@@H](NC(=O)Cc3cccs3)[C@H]2SC1 [cephalothin]	> 1 µg/mL	> 1 µg/mL	1 µg/mL	0.01 µg/mL	> 1 µg/mL	> 1 µg/mL	1 µg/mL	0.01 µg/mL	> 1 µg/mL	1 µg/mL	1 µg/mL	0.01 µg/mL	> 1 µg/mL	1 µg/mL	1 µg/mL	0.01 µg/mL	–
O=C(N[C@H](CO)[C@H](O)c1ccc([N+](=O)[O-])cc1)C(Cl)Cl [chloramphenicol]	> 1 µg/mL	> 1 µg/mL	1 µg/mL	0.1 µg/mL	> 1 µg/mL	> 1 µg/mL	> 1 µg/mL	0.1 µg/mL	> 1 µg/mL	> 1 µg/mL	1 µg/mL	1 µg/mL	> 1 µg/mL	> 1 µg/mL	> 1 µg/mL	1 µg/mL	–
CC[C@H]1OC(=O)[C@H](C)[C@@H](O[C@H]2C[C@@](C)(OC)[C@@H](O)[C@H](C)O2)[C@H](C)[C@@H](O[C@@H]2O[C@H](C)C[C@H](N(C)C)[C@H]2O)[C@](C)(O)C[C@@H](C)C(=O)[C@H](C)[C@@H](O)[C@]1(C)O [erythromycin]	> 1 µg/mL	1 µg/mL	1 µg/mL	0.01 µg/mL	> 1 µg/mL	1 µg/mL	1 µg/mL	0.1 µg/mL	> 1 µg/mL	1 µg/mL	1 µg/mL	0.01 µg/mL	> 1 µg/mL	1 µg/mL	1 µg/mL	0.01 µg/mL	–
CN(C)[C@@H]1C(=O)C(C(N)=O)=C(O)[C@@]2(O)C(=O)C3=C(O)c4c(O)cccc4C(C)(O)[C@H]3C[C@@H]12 (some centres unmarked) [hostacyclin]	–	–	–	–	1 µg/mL	1 µg/mL	1 µg/mL	0.1 µg/mL	–	–	–	–	1 µg/mL	1 µg/mL	1 µg/mL	0.1 µg/mL	Growth inhibiting Concentration of antibiotics (Escherichia coli 0-111; [14]): 1 µg/mL; Growth inhibiting Concentration of antibiotics (Escherichia coli 0-111; [15]): 1 µg/mL; Growth inhibiting Concentration of antibiotics (Escherichia coli 0-111; [16]): 1 µg/mL; Growth inhibiting Concentration of antibiotics (Escherichia coli 0-111; [17]): 0.1 µg/mL; Growth inhibiting Concentration of antibiotics [1, 14]: 1 µg/mL; Growth inhibiting Concentration of antibiotics [1, 15]: 1 µg/mL; Growth inhibiting Concentration of antibiotics [1, 16]: 1 µg/mL; Growth inhibiting Concentration of antibiotics [1, 17]: 0.1 µg/mL
